The record followed here is patent publication US12559506B2, “Indazole based compounds and associated methods of use” (Arvinas Operations, Inc., priority 2021, dated 2026).

Read-outs that look alike come from different tables or passages of the source.

The target of this assay is T1, LRRK2 (endogenous, HiBit tagged) (Homo sapiens, UniProt Q5S007).
T1 construct: endogenous in cells; host or cells: HEK293 cells with HiBit knock-in at the endogenous LRRK2 locus, stably expressing firefly luciferase
Description: Endogenous LRRK2 degradation assay, endogenous gene C-terminally HiBit-tagged in HEK293 cells (Nano-Glo Dual Luciferase). Type of assay: cell-based. Put shortly:
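LRRK2-HiBit quantified via Nano-Glo Dual Luciferase in HEK293 knock-in cells co-expressing firefly luciferase, after 24 h exposure to compound (1 μM final top, 1:3, 11 points). Values normalised to DMSO median per plate and curve-fitted; Alamar Blue viability run alongside.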

[1] abbreviates: endogenous HiBit-tagged LRRK2 in HEK293 cells, 24 hours treatment, read-out: Endogenous WT DC50.
The mark [2] stands for this setting: endogenous HiBit-tagged LRRK2 in HEK293 cells, 24 hours treatment, read-out: Endogenous WT Dmax.
Where [3] appears, read: endogenous HiBit-tagged LRRK2 in HEK293 cells, 24 hours treatment, read-out: **Endogenous WT Dmax (%).
Where [4] appears, read: endogenous HiBit-tagged LRRK2 in HEK293 cells, 24 hours treatment, read-out: *Endogenous WT DC50.

T1 sequence (Q5S007 whole entry): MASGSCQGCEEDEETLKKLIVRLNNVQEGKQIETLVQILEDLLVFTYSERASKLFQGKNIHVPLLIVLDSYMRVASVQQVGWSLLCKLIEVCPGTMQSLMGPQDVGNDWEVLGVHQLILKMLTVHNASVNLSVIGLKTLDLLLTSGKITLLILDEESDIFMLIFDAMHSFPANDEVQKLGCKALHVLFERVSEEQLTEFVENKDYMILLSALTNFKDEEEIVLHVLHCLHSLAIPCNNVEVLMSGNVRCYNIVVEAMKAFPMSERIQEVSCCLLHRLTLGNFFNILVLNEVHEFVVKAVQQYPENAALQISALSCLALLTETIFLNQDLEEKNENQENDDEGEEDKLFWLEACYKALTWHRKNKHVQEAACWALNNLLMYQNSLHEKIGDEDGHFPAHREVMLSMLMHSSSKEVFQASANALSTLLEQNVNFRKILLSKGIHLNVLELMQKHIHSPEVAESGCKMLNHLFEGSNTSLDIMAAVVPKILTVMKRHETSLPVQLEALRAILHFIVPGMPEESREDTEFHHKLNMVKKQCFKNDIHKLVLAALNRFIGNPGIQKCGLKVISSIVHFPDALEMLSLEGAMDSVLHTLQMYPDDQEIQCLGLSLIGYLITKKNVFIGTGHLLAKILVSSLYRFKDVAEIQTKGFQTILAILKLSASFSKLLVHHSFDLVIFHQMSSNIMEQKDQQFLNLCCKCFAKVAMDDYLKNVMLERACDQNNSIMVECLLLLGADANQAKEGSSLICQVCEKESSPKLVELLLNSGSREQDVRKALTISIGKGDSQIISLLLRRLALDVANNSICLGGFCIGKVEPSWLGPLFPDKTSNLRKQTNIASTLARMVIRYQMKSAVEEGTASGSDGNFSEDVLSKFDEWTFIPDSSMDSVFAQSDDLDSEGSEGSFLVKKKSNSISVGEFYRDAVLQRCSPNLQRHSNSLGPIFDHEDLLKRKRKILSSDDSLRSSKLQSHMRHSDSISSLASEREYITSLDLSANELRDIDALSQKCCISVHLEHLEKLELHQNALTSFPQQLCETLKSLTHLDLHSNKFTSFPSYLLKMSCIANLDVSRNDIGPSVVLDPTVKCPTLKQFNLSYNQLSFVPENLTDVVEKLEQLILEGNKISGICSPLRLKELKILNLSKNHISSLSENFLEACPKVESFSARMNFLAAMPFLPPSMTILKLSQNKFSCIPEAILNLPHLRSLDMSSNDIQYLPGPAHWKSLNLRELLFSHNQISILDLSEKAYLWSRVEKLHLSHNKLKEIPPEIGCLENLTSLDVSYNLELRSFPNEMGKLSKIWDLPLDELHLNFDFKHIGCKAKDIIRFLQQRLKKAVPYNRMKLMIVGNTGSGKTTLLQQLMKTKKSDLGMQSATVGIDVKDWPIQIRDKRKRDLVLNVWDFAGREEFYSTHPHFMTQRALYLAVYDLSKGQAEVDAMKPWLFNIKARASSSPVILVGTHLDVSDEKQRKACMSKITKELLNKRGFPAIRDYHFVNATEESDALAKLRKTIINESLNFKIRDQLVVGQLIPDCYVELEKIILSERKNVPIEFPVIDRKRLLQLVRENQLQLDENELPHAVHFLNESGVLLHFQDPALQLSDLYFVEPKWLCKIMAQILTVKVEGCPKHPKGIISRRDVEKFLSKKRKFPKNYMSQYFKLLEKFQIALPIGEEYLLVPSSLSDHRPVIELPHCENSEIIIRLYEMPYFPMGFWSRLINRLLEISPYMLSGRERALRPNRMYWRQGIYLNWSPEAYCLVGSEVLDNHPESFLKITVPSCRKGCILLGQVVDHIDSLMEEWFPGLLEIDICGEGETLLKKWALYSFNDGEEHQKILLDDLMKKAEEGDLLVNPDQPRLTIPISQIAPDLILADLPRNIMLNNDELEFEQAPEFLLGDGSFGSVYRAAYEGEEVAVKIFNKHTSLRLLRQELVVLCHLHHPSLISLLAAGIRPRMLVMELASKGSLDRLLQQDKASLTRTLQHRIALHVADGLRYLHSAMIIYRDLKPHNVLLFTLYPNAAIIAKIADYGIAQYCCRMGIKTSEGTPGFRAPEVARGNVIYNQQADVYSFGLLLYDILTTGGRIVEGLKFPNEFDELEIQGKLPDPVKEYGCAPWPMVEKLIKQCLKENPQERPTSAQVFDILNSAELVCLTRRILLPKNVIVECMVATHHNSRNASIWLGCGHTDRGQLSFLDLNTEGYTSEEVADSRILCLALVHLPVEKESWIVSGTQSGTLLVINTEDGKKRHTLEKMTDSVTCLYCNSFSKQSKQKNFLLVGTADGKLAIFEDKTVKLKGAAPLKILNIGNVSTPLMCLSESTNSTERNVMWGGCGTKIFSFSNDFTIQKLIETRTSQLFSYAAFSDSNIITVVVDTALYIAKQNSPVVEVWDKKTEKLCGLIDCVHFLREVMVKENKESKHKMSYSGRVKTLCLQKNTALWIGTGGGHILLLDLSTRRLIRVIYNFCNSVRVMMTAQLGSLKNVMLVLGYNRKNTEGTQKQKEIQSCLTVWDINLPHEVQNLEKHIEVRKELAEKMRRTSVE

In the case of `COc1c(N2CCC(O[C@H]3CC[C@H](CN4CCN(c5cc(-c6n[nH]c7ccc(OC8(C)CC8)cc67)ncn5)C[C@@H]4C)CC3)CC2)ccc2c1CN(C1CCC(=O)NC1=O)C2=O` (stereo partly drawn) [Compound 366, 3-[4-methoxy-1-oxo-5-(4-{[(1r,4r)-4-{[(2S)-2-methyl-4-{6-[5-(1-methylcyclopropoxy)-1H-indazol-3-yl]pyrimidin-4-yl}piperazin-1-yl]methyl}cyclohexyl]oxy}piperidin-1-yl)-2,3-dihydro-1H-isoindol-2-yl]piperidine-2,6-dione], the half-maximal degradation concentration (DC50) under setting [1] was less than 10 nM. In addition, the Dmax under setting [2] lay in the range of 50 to 70%.

For the molecule `CC1(Oc2ccc3[nH]nc(-c4cc(N5CCC(CN6CCN(C[C@H]7CCN(c8ccc9c(c8F)CN(C8CCC(=O)NC8=O)C9=O)C7)CC6)CC5)ncn4)c3c2)CC1` (stereo partly drawn) [Compound 330, 3-{4-fluoro-5-[(3R)-3-({4-[(1-{6-[5-(1-methylcyclopropoxy)-1H-indazol-3-yl]pyrimidin-4-yl}piperidin-4-yl)methyl]piperazin-1-yl}methyl)pyrrolidin-1-yl]-1-oxo-2,3-dihydro-1H-isoindol-2-yl}piperidine-2,6-dione], under setting [3], the Dmax lay within 50 to 70%. Further, the 50% degradation concentration (DC50) under setting [4] was less than 10 nM.

Regarding `COc1c(N2CCN(C[C@H]3CC[C@H](OC4CCN(c5cc(-c6n[nH]c7ccc(OC8(C)CC8)cc67)ncn5)CC4)CC3)C(C)(C)C2)ccc2c1CN(C1CCC(=O)NC1=O)C2=O` (some centres unmarked) [Compound 364, 3-[5-(3,3-dimethyl-4-{[(1r,4r)-4-[(1-{6-[5-(1-methylcyclopropoxy)-1H-indazol-3-yl]pyrimidin-4-yl}piperidin-4-yl)oxy]cyclohexyl]methyl}piperazin-1-yl)-4-methoxy-1-oxo-2,3-dihydro-1H-isoindol-2-yl]piperidine-2,6-dione], the half-maximal degradation concentration (DC50) under setting [1] is less than 10 nM. Moreover, the Dmax under setting [2] lay in the range of 50 to 70%.

With `CC1(Oc2ccc3n[nH]c(-c4cc(N5CCC(CN6CCN(CC7CCN(c8c(F)ccc9c8CN(C8CCC(=O)NC8=O)C9=O)CC7)CC6)CC5)ncn4)c3c2)CC1` (centres unmarked) [Compound 217, 3-[5-fluoro-4-[4-[[4-[[1-[6-[5-(1-methylcyclopropoxy)-2H-indazol-3-yl]pyrimidin-4-yl]-4-piperidyl]methyl]piperazin-1-yl]methyl]-1-piperidyl]-1-oxo-isoindolin-2-yl]piperidine-2,6-dione], under setting [1], the 50% degradation concentration (DC50) is 10 to 50 nM. In addition, the Dmax under setting [2] is 50 to 70%.

Turning to `CC1(Oc2ccc3[nH]nc(-c4cc(N5CCN(C[C@H]6CC[C@H](OC7CCN(c8ccc9c(c8Cl)CN(C8CCC(=O)NC8=O)C9=O)CC7)CC6)CC5)ncn4)c3c2)CC1` (some centres unmarked) [Compound 243, 3-[4-chloro-1-oxo-5-(4-{[(1r,4r)-4-[(4-{6-[5-(1-methylcyclopropoxy)-1H-indazol-3-yl]pyrimidin-4-yl}piperazin-1-yl)methyl]cyclohexyl]oxy}piperidin-1-yl)-2,3-dihydro-1H-isoindol-2-yl]piperidine-2,6-dione], under setting [1], the DC50 is less than 10 nM. In addition, the Dmax under setting [2] was 50 to 70%.

Take `COc1c(N2CCN(C[C@H]3CC[C@H](OC4CCN(c5cc(-c6n[nH]c7cnc(OC8(C)CC8)cc67)ncn5)CC4)CC3)CC2)ccc2c1CN(C1CCC(=O)NC1=O)C2=O` (some centres unmarked) [Compound 268, 3-[4-methoxy-1-oxo-5-(4-{[(1r,4r)-4-[(1-{6-[5-(1-methylcyclopropoxy)-1H-pyrazolo[3,4-c]pyridin-3-yl]pyrimidin-4-yl}piperidin-4-yl)oxy]cyclohexyl]methyl}piperazin-1-yl)-2,3-dihydro-1H-isoindol-2-yl]piperidine-2,6-dione]: the Dmax under setting [3] lay within 50 to 70%. The DC50 under setting [4] was less than 10 nM.

For the molecule `CC1(Oc2ccc3n[nH]c(-c4cc(N5CCC(O[C@H]6C[C@H](N7CCC8(CC7)CN(c7ccc9c(c7F)CN(C7CCC(=O)NC7=O)C9=O)C8)C6)CC5)ncn4)c3c2)CC1` (some centres unmarked) [Compound 323, 3-(4-fluoro-1-oxo-5-{7-[(1r,3r)-3-[(1-{6-[5-(1-methylcyclopropoxy)-2H-indazol-3-yl]pyrimidin-4-yl}piperidin-4-yl)oxy]cyclobutyl]-2,7-diazaspiro[3.5]nonan-2-yl}-2,3-dihydro-1H-isoindol-2-yl)piperidine-2,6-dione], the Dmax under setting [3] fell in the range of 50 to 70%. Also, under setting [4], the DC50 is less than 10 nM.

For `CC1(Oc2cc3c(-c4cc(N5CCC(CN6CCN(CC7CCN(c8ccc9c(c8F)CN(C8CCC(=O)NC8=O)C9=O)CC7)C(C)(C)C6)CC5)ncn4)n[nH]c3cn2)CC1` (centres unmarked) [Compound 270, 3-{5-[4-({2,2-dimethyl-4-[(1-{6-[5-(1-methylcyclopropoxy)-1H-pyrazolo[3,4-c]pyridin-3-yl]pyrimidin-4-yl}piperidin-4-yl)methyl]piperazin-1-yl}methyl)piperidin-1-yl]-4-fluoro-1-oxo-2,3-dihydro-1H-isoindol-2-yl}piperidine-2,6-dione], the Dmax under setting [3] was not below 70%. Moreover, under setting [4], the 50% degradation concentration (DC50) was less than 10 nM.

With `CC1(Oc2ccc3n[nH]c(-c4cc(N5CCC(O[C@H]6CC[C@H](OC7CCN(c8cc9c(cc8F)C(=O)N(C8CCC(=O)NC8=O)C9)CC7)CC6)CC5)ncn4)c3c2)CC1` (some centres unmarked) [Compound 244, 3-[6-fluoro-1-oxo-5-(4-{[(1r,4r)-4-[(1-{6-[5-(1-methylcyclopropoxy)-2H-indazol-3-yl]pyrimidin-4-yl}piperidin-4-yl)oxy]cyclohexyl]oxy}piperidin-1-yl)-2,3-dihydro-1H-isoindol-2-yl]piperidine-2,6-dione], the DC50 under setting [1] is less than 10 nM. Besides, the greatest degradation seen (Dmax) under setting [2] was in the range of 50 to 70%.

As to `COc1c(N2CC3(CCN(CCC4CCN(c5cc(-c6n[nH]c7ccc(OC8(C)CC8)cc67)ncn5)CC4)CC3(F)F)C2)ccc2c1CN(C1CCC(=O)NC1=O)C2=O` (centres unmarked) [Compound 341, 3-(5-{5,5-difluoro-7-[2-(1-{6-[5-(1-methylcyclopropoxy)-1H-indazol-3-yl]pyrimidin-4-yl}piperidin-4-yl)ethyl]-2,7-diazaspiro[3.5]nonan-2-yl}-4-methoxy-1-oxo-2,3-dihydro-1H-isoindol-2-yl)piperidine-2,6-dione], the Dmax under setting [3] lay within 50 to 70%. Further, the DC50 under setting [4] was less than 10 nM.

Turning to `CC1(Oc2cc3c(-c4cc(N5CCC(O[C@H]6C[C@@H](OC7CCN(c8ccc9c(c8F)CN(C8CCC(=O)NC8=O)C9=O)CC7)C6)CC5)ncn4)n[nH]c3cn2)CC1` (some centres unmarked) [Compound 233, 3-(4-fluoro-1-oxo-5-{4-[(1s,3s)-3-[(1-{6-[5-(1-methylcyclopropoxy)-1H-pyrazolo[3,4-c]pyridin-3-yl]pyrimidin-4-yl}piperidin-4-yl)oxy]cyclobutoxy]piperidin-1-yl}-2,3-dihydro-1H-isoindol-2-yl)piperidine-2,6-dione], under setting [1], the DC50 was less than 10 nM. Moreover, the Dmax under setting [2] was 50 to 70%.

Take `COc1c(N2CCC(O[C@H]3CC[C@H](OC4CCN(c5cc(-c6n[nH]c7cnc(OC8(C)CC8)cc67)ncn5)CC4)CC3)CC2)ccc2c1CN(C1CCC(=O)NC1=O)C2=O` (some centres unmarked) [Compound 380, 3-[4-methoxy-1-oxo-5-(4-{[(1r,4r)-4-[(1-{6-[5-(1-methylcyclopropoxy)-1H-pyrazolo[3,4-c]pyridin-3-yl]pyrimidin-4-yl}piperidin-4-yl)oxy]cyclohexyl]oxy}piperidin-1-yl)-2,3-dihydro-1H-isoindol-2-yl]piperidine-2,6-dione]: the 50% degradation concentration (DC50) under setting [1] was less than 10 nM. Besides, the greatest degradation seen (Dmax) under setting [2] was in the range of 50 to 70%.

As for `COc1c(N2CCN(C[C@H]3CC[C@H](CN4CCN(c5cc(-c6n[nH]c7cnc(OC8(C)CC8)cc67)ncn5)CC4)CC3)CC2)ccc2c1CN(C1CCC(=O)NC1=O)C2=O` (some centres unmarked) [Compound 261, 3-[4-methoxy-1-oxo-5-(4-{[(1r,4r)-4-[(4-{6-[5-(1-methylcyclopropoxy)-1H-pyrazolo[3,4-c]pyridin-3-yl]pyrimidin-4-yl}piperazin-1-yl)methyl]cyclohexyl]methyl}piperazin-1-yl)-2,3-dihydro-1H-isoindol-2-yl]piperidine-2,6-dione], under setting [3], the maximal degradation (Dmax) was in the range of 50 to 70%. For the same molecule, the DC50 under setting [4] was less than 10 nM.

In the case of `CC1(Oc2cc3c(-c4cc(N5CCN(C[C@H]6CC[C@H](CN7CCN(c8ccc9c(c8F)CN(C8CCC(=O)NC8=O)C9=O)CC7)CC6)CC5)ncn4)n[nH]c3cn2)CC1` (some centres unmarked) [Compound 267, 3-[4-fluoro-1-oxo-5-(4-{[(1r,4r)-4-[(4-{6-[5-(1-methylcyclopropoxy)-1H-pyrazolo[3,4-c]pyridin-3-yl]pyrimidin-4-yl}piperazin-1-yl)methyl]cyclohexyl]methyl}piperazin-1-yl)-2,3-dihydro-1H-isoindol-2-yl]piperidine-2,6-dione], the Dmax under setting [3] is not below 70%. Also, under setting [4], the 50% degradation concentration (DC50) was less than 10 nM.

For the molecule `CC1(Oc2cc3c(-c4cc(N5CCC(CN6CCN(CC7CCN(c8ccc9c(c8F)CN(C8CCC(=O)NC8=O)C9=O)CC7)CC6)CC5)ncn4)n[nH]c3cn2)CC1` (centres unmarked) [Compound 201, 3-(4-fluoro-5-(4-((4-((1-(6-(5-(1-methylcyclopropoxy)-1H-pyrazolo[3,4-c]pyridin-3-yl)pyrimidin-4-yl)piperidin-4-yl)methyl)piperazin-1-yl)methyl)piperidin-1-yl)-1-oxoisoindolin-2-yl)piperidine-2,6-dione], the Dmax (endogenous HiBit-tagged LRRK2, HEK293 cells, 24 hours, read-out: **Endogenous WT Dmax (%)) was not below 70%. Besides, the DC50 (endogenous HiBit-tagged LRRK2, HEK293 cells, 24 hours, read-out: *Endogenous WT DC50) was less than 10 nM.

As for `COc1c(N2CCN(C[C@H]3C[C@H](OC4CCN(c5cc(-c6[nH]nc7ccc(OC8(C)CC8)cc67)ncn5)CC4)C3)CC2)ccc2c1CN(C1CCC(=O)NC1=O)C2=O` (some centres unmarked) [Compound 314, 3-[4-methoxy-1-oxo-5-(4-{[(1r,3r)-3-[(1-{6-[5-(1-methylcyclopropoxy)-2H-indazol-3-yl]pyrimidin-4-yl}piperidin-4-yl)oxy]cyclobutyl]methyl}piperazin-1-yl)-2,3-dihydro-1H-isoindol-2-yl]piperidine-2,6-dione], the Dmax under setting [3] was 50 to 70%. Also, the DC50 under setting [4] was less than 10 nM.
